For data set [1] the following is noted: cited from earlier work.
Data set [2] can be described thus: Release kinetics of local anesthetic from hyaluronic acid gel by dialysis, UV-visible spectrophotometry. Conditions: HA 3×10^6 Da, X=0.12, 20 mg/g; for mass percentage of local anesthetic in the hyaluronic acid gel: initial 3 mg/g, 37° C., physiological saline. Type of data set: physicochemical.
Description: The release kinetics were, however, studied at 37° C. in physiological saline medium. Monitoring by UV-visible spectrophotometry is performed to assay the local anesthetic present in the gel.

`Cc1cccc(C)c1NC(=O)C1CCCCN1C` (stereo not drawn) [Mepivacaine, mepivacaine]: the pKa in data set [1] is listed as 7.7. Moreover, the “release kinetics from the hyaluronic acid gel (FIG. 1), lidocaine versus mepivacaine” value in data set [2] (3 mg/g, dialysis at 37° C. in physiological saline) is on record as “comparable”. Also, the “mass percentage of local anesthetic in the hyaluronic acid gel” value in data set [2] (dialysis time 0 h) was 0.290 mass %; in data set [2] (dialysis time 1.5 h), 0.133 mass %; in data set [2] (dialysis time 5 h), 0.100 mass %; in data set [2] (dialysis time 7 h), 0.098 mass %; in data set [2] (dialysis time 23 h), 0.086 mass %; in data set [2] (dialysis time 48 h) it was 0.077 mass %. In addition, the “mass percentage of local anesthetic in the hyaluronic acid gel” value in data set [2] (dialysis time 72 h) is on record as 0.075 mass %.

Usually pKa stands for the negative logarithm of the acid dissociation constant.

The values above are taken from patent US20200000969A1, “HYALURONIC ACID COMPOSITIONS INCLUDING MEPIVACAINE” (LABORATOIRES VIVACY, priority 2013, published 2020).
